Measurements taken from patent US6352958B1, “Cycloimido-substituted benzofused heterocyclic herbicides” (FMC Corporation, priority 1997, dated 2002).

Columns and labels:
Type in all cases: in vivo
[1] = test system: velvetleaf (Abutilon theophrasti); assay: Postemergence herbicidal activity, velvetleaf; settings: Abutilon theophrasti, post-emergence, rate of application 0.3 Kg/Ha, rated after 12-17 days, read-out: Postemergence herbicidal activity (% control) ABUTH
[2] = test system: green foxtail (Setaria viridis); assay: Preemergence herbicidal activity, green foxtail; settings: Setaria viridis, pre-emergence, Rate of Application 0.3 Kg/Ha, examined after 12-17 days, read-out: PREEMERGENCE HERBICIDAL ACTIVITY (% CONTROL) SETVI
[3] = test system: common chickweed (Stellaria media); assay: Preemergence herbicidal activity, chickweed; settings: Stellaria media, pre-emergence, Rate of Application 0.3 Kg/Ha, examined after 12-17 days, read-out: PREEMERGENCE HERBICIDAL ACTIVITY (% CONTROL) STEME
[4] = test system: wheat (Triticum aestivum var. Lew); assay: Postemergence herbicidal activity, wheat; settings: Triticum aestivum, post-emergence, rate of application 0.3 Kg/Ha, rated after 12-17 days, read-out: Postemergence herbicidal activity (% control) WHT
[5] = test system: soybean (Glycine max var. Winchester); assay: Preemergence herbicidal activity, soybean; settings: Glycine max, pre-emergence, Rate of Application 0.3 Kg/Ha, examined after 12-17 days, read-out: PREEMERGENCE HERBICIDAL ACTIVITY (% CONTROL) SOY
[6] = test system: common chickweed (Stellaria media); assay: Postemergence herbicidal activity, chickweed; settings: Stellaria media, post-emergence, rate of application 0.3 Kg/Ha, rated after 12-17 days, read-out: Postemergence herbicidal activity (% control) STEME
[7] = test system: Johnsongrass (Sorghum halepense); assay: Preemergence herbicidal activity, johnsongrass; settings: Sorghum halepense, pre-emergence, Rate of Application 0.3 Kg/Ha, examined after 12-17 days, read-out: PREEMERGENCE HERBICIDAL ACTIVITY (% CONTROL) SORHA
[8] = test system: common cocklebur (Xanthium strumarium L.); assay: Postemergence herbicidal activity, cocklebur; settings: Xanthium strumarium, post-emergence, rate of application 0.3 Kg/Ha, rated after 12-17 days, read-out: Postemergence herbicidal activity (% control) XANPE
[9] = test system: common cocklebur (Xanthium strumarium L.); assay: Preemergence herbicidal activity, cocklebur; settings: Xanthium strumarium, pre-emergence, Rate of Application 0.3 Kg/Ha, examined after 12-17 days, read-out: PREEMERGENCE HERBICIDAL ACTIVITY (% CONTROL) XANPE
[10] = test system: blackgrass (Aloepecurus myosuroides); assay: Postemergence herbicidal activity, blackgrass; settings: Alopecurus myosuroides, post-emergence, rate of application 0.3 Kg/Ha, rated after 12-17 days, read-out: Postemergence herbicidal activity (% control) ALOMY
[11] = test system: green foxtail (Setaria viridis); assay: Postemergence herbicidal activity, green foxtail; settings: Setaria viridis, post-emergence, rate of application 0.3 Kg/Ha, rated after 12-17 days, read-out: Postemergence herbicidal activity (% control) SETVI
[12] = test system: morningglory (Ipomea lacunosa or Ipomea hederacea); assay: Preemergence herbicidal activity, morningglory; settings: Ipomoea, pre-emergence, Rate of Application 0.3 Kg/Ha, examined after 12-17 days, read-out: PREEMERGENCE HERBICIDAL ACTIVITY (% CONTROL) IPOSS
[13] = test system: morningglory (Ipomea lacunosa or Ipomea hederacea); assay: Postemergence herbicidal activity, morningglory; settings: Ipomoea, post-emergence, rate of application 0.3 Kg/Ha, rated after 12-17 days, read-out: Postemergence herbicidal activity (% control) IPOSS
[14] = test system: field corn (Zea mays var. Pioneer 3732); assay: Postemergence herbicidal activity, corn; settings: Zea mays, post-emergence, rate of application 0.3 Kg/Ha, rated after 12-17 days, read-out: Postemergence herbicidal activity (% control) CRN

Row | SMILES | inhibition at 300 g/ha [1] [%] | inhibition at 300 g/ha [2] [%] | inhibition at 300 g/ha [3] [%] | inhibition at 300 g/ha [4] [%] | inhibition at 300 g/ha [5] [%] | inhibition at 300 g/ha [6] [%] | inhibition at 300 g/ha [7] [%] | inhibition at 300 g/ha [8] [%] | inhibition at 300 g/ha [9] [%] | inhibition at 300 g/ha [10] [%] | inhibition at 300 g/ha [11] [%] | inhibition at 300 g/ha [12] [%] | inhibition at 300 g/ha [13] [%] | inhibition at 300 g/ha [14] [%]
1 | CCc1nc2c(-n3c(=O)cc(C(F)(F)F)n(C)c3=O)c(F)cc(Cl)c2[nH]1 [Compound 367, 3-(4-CHLORO-2-ETHYL-6-FLUOROBENZIMIDAZOL-7-YL)-1-METHYL-6-TRIFLUOROMETHYL-2,4(1H,3H)-PYRIMIDINEDIONE] | 100 | 100 | 100 | 100 | 100 | 100 | 100 | 100 | 100 | 100 | 100 | 100 | 100 | 100
2 | Cn1c(C(F)(F)F)cc(=O)n(-c2c(F)cc(Cl)c3[nH]c(C(F)(F)F)cc23)c1=O [Compound 500, 3-(7-CHLORO-5-FLUORO-2-TRIFLUOROMETHYLINDOL-4-YL)-1-METHYL-6-TRIFLUOROMETHYL-2,4(1H,3H)-PYRIMIDINEDIONE] | 100 | 100 | 100 | 65 | 95 | 90 | 100 | 100 | 100 | 80 | 100 | 100 | 100 | 95
3 | CC(C)c1nc2c(-n3c(=O)cc(C(F)(F)F)n(C)c3=O)c(F)cc(Cl)c2o1 [Compound 28, 1-METHYL-6-TRIFLUOROMETHYL-3-[7-CHLORO-5-FLUORO-2-(1-METHYLETHYL)BENZOXAZOL4-YL]-2,4(1H,3H)-PYRIMIDINEDIONE] | 100 | 100 | 100 | 80 | 100 | 100 | 100 | 90 | 100 | 100 | 100 | 100 | 100 | 80
